{"source": "patent US7294651B2", "about": "(priority 2001, dated 2007)", "key": {"S. aureus (MN8)": {"test_system": "S. aureus (MN8)", "type": "cell-based"}, "TSST-1": {"test_system": "TSST-1", "type": "cell-based, S. aureus", "design": "ng TSST-1 per CFU: scale not given here"}}, "note": "“And” between values parts separate entries of the source, which are not always exact repeats. Equal values may be shown once.", "data": [{"molecule": "CC(=O)/C=C/C1=C(C)CCCC1(C)C", "note": "[Beta-ionone]", "values": [{"measurement": "CFU/mL", "setting": "S. aureus (MN8)", "value": "1.8E+08", "unit": "CFU/mL"}, {"measurement": "Optical Density", "setting": "S. aureus (MN8)", "value": 0.688}, {"measurement": "Reduction of Toxin %", "setting": "TSST-1", "value": 100, "unit": "%"}, {"measurement": "ng TSST-1 per OD Unit", "setting": "TSST-1", "value": "none"}]}, {"molecule": "myreth-3-myristate [Cetiol]", "values": [{"measurement": "CFU/mL × 10^8", "setting": "S. aureus (MN8)", "value": "4.2 CFU/mL × 10^8 and 5.9 CFU/mL × 10^8 and 5.0 CFU/mL × 10^8"}, {"measurement": "ng TSST-1 per CFU", "setting": "TSST-1", "value": "371 and 196 and 200"}, {"measurement": "ng TSST-1 per mL", "setting": "TSST-1", "value": "1556 ng TSST-1 per mL and 1147 ng TSST-1 per mL and 989 ng TSST-1 per mL"}]}, {"molecule": "CC1CCC(C(C)C)C(O)C1", "note": "(centres unmarked) [Menthol, menthol]", "values": [{"measurement": "effect on the growth of S. aureus cells", "setting": "S. aureus (MN8)", "value": "minimal, if any, effect"}]}]}
